Data on 13 molecules can be found in paper PMC9499365, “Stereoselective Synthesis and Application of Gibberellic Acid-Derived Aminodiols” (International Journal of Molecular Sciences, 2022).

The structures appear in SMILES notation. Where only a bound is given, the exact number is not on record here.

Data set [1] concerns A2780 ovarian cancer cells. Briefly: MTT antiproliferative assay, A2780. It is filed as cell-based, human. Conditions: Homo sapiens, 72 h, read-out: Growth inhibition (%) ± SEM; for inhibition at 10 µM: A2780, 10 μM; for inhibition at 30 µM: A2780, 30 μM. How it is done:
(§1) The in vitro antiproliferative activities of the synthesized aminodiols 4–38 against a panel of different human cancer cell lines of gynecological origin, including cervical (SiHA and HeLa), breast (MCF7 and MDA-MB-231), and ovary (A2780) cancers were assayed by the MTT method. […] Cisplatin, a clinically applied anticancer agent, was used as a reference compound and the results are summarized in Figure 3 and Table S1 in Supporting Information. […] On the other hand, none of the prepared azole derivatives exerted relevant activity.
(§2) The growth-inhibitory effects of the gibberellic acid-based aminodiol derivatives were determined by a standard MTT (3-(4,5-dimethylthiazol-2-yl)-2,5-diphenyltetrazolium bromide) assay on a panel containing five cell lines, including Hela and Siha (cervical cancers); MDA-MB-231 and MCF-7 (breast cancers); and A2780 ovarian cancer cells. The most promising agents were additionally tested against NIH/3T3 mouse embryo fibroblast cells. All cell lines were purchased from the European Collection of Cell Cultures (Salisbury, UK) except SiHa, which was obtained from the American Tissue Culture Collection (Manassas, VA, USA). The cells were maintained in minimal essential medium supplemented with 10% fetal bovine serum, 1% non-essential amino acids, and 1% penicillin-streptomycin at 37 °C in a humidified atmosphere containing 5% CO2. All media and supplements were obtained from Lonza Group Ltd., (Basel, Switzerland). Cancer cells were seeded into 96-well plates (5000 cells/well), after an overnight incubation the test compound was added in 2 different concentrations (10 µM and 30 µM) and incubated for another 72 h under cell-culturing conditions. Then, 20 μL of 5 mg/mL MTT solution was added to each well and incubated for a further 4 h. The medium was removed, and the precipitated formazan crystals were dissolved in DMSO during 60 min of shaking at 37 °C. As the final step, the absorbance was measured at 545 nm by using a microplate reader (SPECTROStar Nano, BMG Labtech, Offenburg, Germany). Untreated cells were included as controls. […] These agents were additionally tested against NIH/3T3 fibroblasts to obtain results about their cancer selectivity. Two independent experiments were performed with five wells for each condition. Cisplatin (Ebewe GmbH, Unterach, Austria), a clinically used anticancer agent, was used as a positive control. Calculations were performed utilizing the GraphPad Prism 5.01 software (GraphPad Software Inc., San Diego, CA, USA).

In data set [2] the test system is MDA-MB-231 cells (breast cancer). Kind of data set: MTT antiproliferative assay, MDA-MB-231. The class given is cell-based, human. The note with it: Homo sapiens, 72 h, read-out: Growth inhibition (%) ± SEM; for inhibition at 10 µM: MDA-MB-231, 10 μM; for inhibition at 30 µM: MDA-MB-231, 30 μM. How it is done: as §1, §2
(Tetrazolium assays rely on reduction of a dye to a coloured formazan, in cell work by metabolically active cells.)

The test system of data set [3] is SiHa cells (cervical cancer). Kind of data set: MTT antiproliferative assay, SiHa. The class given is cell-based, human. The note with it: Homo sapiens, 72 h, read-out: Growth inhibition (%) ± SEM. How it is done: as §1, §2
The subject of data set [4] is HeLa cells (cervical cancer). Briefly: MTT antiproliferative assay, HeLa. The class given is cell-based, human. Conditions: Homo sapiens, 72 h, read-out: Growth inhibition (%) ± SEM. How it is done:
as §1, §2

As usually defined, the melting point is the temperature of the solid-liquid transition. `CCOC(=O)[C@H]1c2c(C)cccc2[C@H]2CC[C@]3(O)C[C@@]21C[C@]3(O)Cn1ccnn1` [Compound 29, Ethyl (4bS,7S,8S,9aR,10R)-8-((1H-1,2,3-triazol-1-yl)methyl)-7,8-dihydroxy-1-methyl-4b,6,7,8,9,10-hexahydro-5H-7,9a-methanobenzo[a]azulene-10-carboxylate] showed a melting point of 90 to 92 °C.

With `CCOC(=O)[C@H]1c2c(C)cccc2[C@H]2CC[C@]3(O)C[C@@]21C[C@]3(O)CNC(C)C` [Compound 19, Ethyl (4bS,7S,8S,9aR,10R)-7,8-dihydroxy-8-((isopropylamino)methyl)-1-methyl-4b,6,7,8,9,10-hexahydro-5H-7,9a-methanobenzo[a]azulene-10-carboxylate], the melting point lay in the range of 102 to 103 °C.

Usually inhibition stands for the percentage by which the read-out fell short of the control. Molecule `CCOC(=O)[C@H]1c2c(C)cccc2[C@H]2CC[C@]3(O)C[C@@]21C[C@]3(O)Cn1ccnc1` [Compound 26, Ethyl (4bS,7S,8S,9aR,10R)-8-((1H-imidazol-1-yl)methyl)-7,8-dihydroxy-1-methyl-4b,6,7,8,9,10-hexahydro-5H-7,9a-methanobenzo[a]azulene-10-carboxylate] yielded a melting point of 101 to 103 °C. Besides, in data set [1], the inhibition at 10 µM was < 20% and the inhibition at 30 µM is < 20%. Further, in data set [2], the inhibition at 10 µM is < 20% and the inhibition at 30 µM was < 20%. In addition, in data set [3], the inhibition at 10 µM was < 20% and the inhibition at 30 µM amounted to 25.9 ± 2.53%. In addition, in data set [4], the inhibition at 10 µM is < 20% and the inhibition at 30 µM was < 20%.

As for `CCOC(=O)[C@H]1c2c(C)cccc2[C@H]2CC[C@]3(O)C[C@@]21C[C@]3(O)CN[C@@H](C)c1ccc(F)cc1` [Compound 10, Ethyl (4bS,7S,8S,9aR,10R)-8-((((S)-1-(4-fluorophenyl)ethyl)amino)methyl)-7,8-dihydroxy-1-methyl-4b,6,7,8,9,10-hexahydro-5H-7,9a-methanobenzo[a]azulene-10-carboxylate], the melting point was 84 to 86 °C. In addition, in data set [1], the inhibition at 10 µM came out at 22.2 ± 1.93% and the inhibition at 30 µM is 96.46 ± 0.76%. In data set [2], the inhibition at 10 µM came out at 31.2 ± 0.77% and the inhibition at 30 µM came to 94.5 ± 1.05%. In addition, in data set [3], the inhibition at 10 µM is 39.1 ± 1.82% and the inhibition at 30 µM was found to be 97.08 ± 0.08%. Besides, in data set [4], the inhibition at 10 µM worked out at 38.5 ± 2.02% and the inhibition at 30 µM is 97.93 ± 0.11%.

Take `CCOC(=O)[C@H]1c2c(C)cccc2[C@H]2CC[C@]3(O)C[C@@]21C[C@]3(O)CNCc1cccc2ccccc12` [Compound 15, Ethyl (4bS,7S,8S,9aR,10R)-7,8-dihydroxy-1-methyl-8-(((naphthalen-1-ylmethyl)amino)methyl)-4b,6,7,8,9,10-hexahydro-5H-7,9a-methanobenzo[a]azulene-10-carboxylate]: the melting point lay within 71 to 74 °C. Moreover, in data set [1], the inhibition at 10 µM amounted to 21.9 ± 1.5% and the inhibition at 30 µM amounted to 95.48 ± 0.65%. In data set [2], the inhibition at 10 µM was < 20% and the inhibition at 30 µM was 95.96 ± 0.69%. For the same molecule, in data set [3], the inhibition at 10 µM is 28.61 ± 0.15% and the inhibition at 30 µM amounted to 97.95 ± 0.63%. In data set [4], the inhibition at 10 µM was 28.2 ± 0.88% and the inhibition at 30 µM worked out at 96.7 ± 1.54%.

`C#CCNC[C@@]1(O)C[C@]23C[C@@]1(O)CC[C@@H]2c1cccc(C)c1[C@@H]3C(=O)OCC` [Compound 20, Ethyl (4bS,7S,8S,9aR,10R)-7,8-dihydroxy-1-methyl-8-((prop-2-yn-1-ylamino)methyl)-4b,6,7,8,9,10-hexahydro-5H-7,9a-methanobenzo[a]azulene-10-carboxylate] displayed a melting point of 111 to 112 °C.

`CCOC(=O)[C@H]1c2c(C)cccc2[C@H]2CC[C@]3(O)C[C@@]21CC31CN(Cc2ccccc2)CO1` (stereo partly drawn) [Compound 24, Ethyl (4b’S,7’S,9a’R,10’R)-3-benzyl-7’-hydroxy-1’-methyl-4b’,6’,7’,10’-tetrahydro-5’H,9’H-spiro[oxazolidine-5,8’-[7,9a]methanobenzo[a]azulene]-10’-carboxylate] yielded a melting point of 125 to 126 °C. Moreover, in data set [1], the inhibition at 10 µM is < 20% and the inhibition at 30 µM was determined as 34.1 ± 1.77%. Moreover, in data set [2], the inhibition at 10 µM was < 20% and the inhibition at 30 µM amounted to 42.4 ± 1.46%. For the same molecule, in data set [3], the inhibition at 10 µM is < 20% and the inhibition at 30 µM is 31.9 ± 1.28%. Moreover, in data set [4], the inhibition at 10 µM is < 20% and the inhibition at 30 µM was 53.9 ± 2.21%.

Consider `CCOC(=O)[C@@H]1c2c(C)cccc2C2CC[C@]3(O)C[C@@]21C[C@]3(O)CN[C@@H](C)c1cccc2ccccc12` (stereo partly drawn) [Compound 36, Ethyl (7S,8S,9aR,10S)-7,8-dihydroxy-1-methyl-8-((((S)-1-(naphthalen-1-yl)ethyl)amino)methyl)-4b,6,7,8,9,10-hexahydro-5H-7,9a-methanobenzo[a]azulene-10-carboxylate], for which the inhibition at 10 µM in data set [1] was 46.7 ± 1.46%; in data set [2], 46.9 ± 1.05%; in data set [3], 31.4 ± 1.21%; in data set [4], 31.1 ± 2.01%. Further, the inhibition at 30 µM in data set [1] turned out to be 94.81 ± 0.11%; in data set [2] it was 95.53 ± 0.83%; in data set [3], 97.69 ± 0.58%; in data set [4] it was 95.4 ± 2.87%.

With `CCOC(=O)[C@@H]1c2c(C)cccc2C2CC[C@]3(O)C[C@@]21C[C@]3(O)CN[C@H](C)c1cccc2ccccc12` (stereo partly drawn) [Compound 37, Ethyl (7S,8S,9aR,10S)-7,8-dihydroxy-1-methyl-8-((((R)-1-(naphthalen-1-yl)ethyl)amino)methyl)-4b,6,7,8,9,10-hexahydro-5H-7,9a-methanobenzo[a]azulene-10-carboxylate], the inhibition at 10 µM in data set [1] was 35.9 ± 0.89%; in data set [2], < 20%; in data set [3], 34.5 ± 1.89%; in data set [4], 35.8 ± 0.42%. Moreover, the inhibition at 30 µM in data set [1] stood at 96 ± 0.99%; in data set [2], 96.64 ± 0.17%; in data set [3], 97.58 ± 0.47%; in data set [4] it was 97.35 ± 0.69%.

On to `CCOC(=O)[C@H]1c2c(C)cccc2[C@H]2CC[C@]3(O)C[C@@]21C[C@]3(O)CN1CCCCC1` [Compound 21, Ethyl (4bS,7S,8S,9aR,10R)-7,8-dihydroxy-1-methyl-8-(piperidin-1-ylmethyl)-4b,6,7,8,9,10-hexahydro-5H-7,9a-methanobenzo[a]azulene-10-carboxylate], for which the melting point lay in the range of 84 to 86 °C.

Consider `CCOC(=O)[C@H]1c2c(C)cccc2[C@H]2CC[C@]3(O)C[C@@]21C[C@]3(O)CN[C@@H](C)c1ccccc1` [Compound 5, Ethyl (4bS,7S,8S,9aR,10R)-7,8-dihydroxy-1-methyl-8-((((S)-1-phenylethyl)amino)methyl)-4b,6,7,8,9,10-hexahydro-5H-7,9a-methanobenzo[a]azulene-10 carboxylate], for which the inhibition at 10 µM was 30.42 ± 0.22% in data set [1], < 20% in data set [2], < 20% in data set [3] and 22.3 ± 5.01% in data set [4]. Further, the inhibition at 30 µM worked out at 51.6 ± 2.69% in data set [1], 64.9 ± 1.91% in data set [2], 48.3 ± 4.04% in data set [3] and 51 ± 9.48% in data set [4].

Take `CCOC(=O)[C@H]1c2c(C)cccc2[C@H]2CC[C@]3(O)C[C@@]21C[C@]3(O)Cn1cncn1` [Compound 28, Ethyl (4bS,7S,8S,9aR,10R)-8-((1H-1,2,4-triazol-1-yl)methyl)-7,8-dihydroxy-1-methyl-4b,6,7,8,9,10-hexahydro-5H-7,9a-methanobenzo[a]azulene-10-carboxylate]: the melting point was in the range of 87 to 89 °C.

The molecule `CCOC(=O)[C@H]1c2c(C)cccc2[C@H]2CC[C@]3(O)C[C@@]21C[C@]3(O)CN1CCN(C)CC1` [Compound 22, Ethyl (4bS,7S,8S,9aR,10R)-7,8-dihydroxy-1-methyl-8-((4-methylpiperazin-1-yl)methyl)-4b,6,7,8,9,10-hexahydro-5H-7,9a-methanobenzo[a]azulene-10-carboxylate] gave a melting point of 42 to 45 °C.
